Values of other authors, collected in patent US20090182024A1, “EXTENDED RELEASE TABLET FORMULATION CONTAINING PRAMIPEXOLE OR A PHARMACEUTICALLY ACCEPTABLE SALT THEREOF” (BOEHRINGER INGELHEIM INTERNATIONAL GMBH, priority 2004, published 2009).
Counter-ions that a name gives are not always drawn.

Columns and labels:
[1] = in vivo
[2] = not given; remark: listed apart in the source

Row | SMILES | stability in solution (in solution) | stability in the solid state (solid state) | kinetics [1] | solubility in buffer media ([2]; between pH 2 and pH 7.4) | Water solubility ([2]; water)
1 | CCCN[C@H]1CCc2nc(N)sc2C1 [Pramipexole, (S)-2-amino-4,5,6,7-tetrahydro-6-(propylamino)benzothiazole] | light sensitive | very stable | linear kinetics |  | 
2 | CCCN[C@H]1CCc2nc(N)sc2C1 [Pramipexole dihydrochloride monohydrate, pramipexole dihydrochloride monohydrate] |  |  |  | above 10 mg/mL | more than 20 mg/mL
